Test results from patent US20170050957A1, “4-AMINO-6-(HETEROCYCLIC)PICOLINATES AND 6-AMINO-2-(HETEROCYCLIC)PYRIMIDINE-4-CARBOXYLATES AND THEIR USE AS HERBICIDES” (Dow AgroSciences LLC, priority 2013, published 2017).
Where two headings read alike, the source gives them in different places.

Legend:
[1] = test system: Key Grass and Sedge Weeds as well as Grass Crops; experiment: Post-emergent Test II herbicidal activity (Table 16); assay type: in vivo; conditions: post-emergence, 336 h, 14 d; for pest or weed control at 35 g/ha: 35 g ai/ha; for pest or weed control at 70 g/ha: 70 g ai/ha; for pest or weed control at 140 g/ha: 140 g ai/ha
Procedure, shortened: (§1)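 Plants grown in greenhouse (~15 h photoperiod, 23-29 °C day, 22-28 °C night) to first or second true leaf stage, then sprayed post-emergence at 187 L/ha with a high rate and 1/2×, 1/4×, 1/8× and 1/16× dilutions. Injury scored visually after 14 d, 0-100% versus untreated plants.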

[2] = test system: Key Broadleaf Weed and Crop Species; experiment: Post-emergent Test II herbicidal activity (Table 15); assay type: in vivo; conditions: post-emergence, 336 h, 14 d; for pest or weed control at 35 g/ha: 35 g ai/ha; for pest or weed control at 70 g/ha: 70 g ai/ha; for pest or weed control at 140 g/ha: 140 g ai/ha
Procedure, shortened: as §1

[3] = Cyperus esculentus, yellow nutsedge (Cyperus esculentus), read-out: Visual Growth Reduction (%) 14 Days After Application, CYPES
[4] = Echinochloa crus-galli, barnyardgrass (Echinochloa crus-galli), read-out: Visual Growth Reduction (%) 14 Days After Application, ECHCG
[5] = Oryza sativa, rice (Oryza sativa), read-out: Visual Growth Reduction (%) 14 Days After Application, ORYSA
[6] = Setaria faberi, giant foxtail (Setaria faberi), read-out: Visual Growth Reduction (%) 14 Days After Application, SETFA
[7] = Triticum aestivum, wheat, spring (Triticum aestivum), read-out: Visual Growth Reduction (%) 14 Days After Application, TRZAS
[8] = Abutilon theophrasti, velvetleaf (Abutilon theophrasti), read-out: Visual Growth Reduction (%) 14 Days After Application, ABUTH
[9] = Amaranthus retroflexus, redroot pigweed (Amaranthus retroflexus), read-out: Visual Growth Reduction (%) 14 Days After Application, AMARE
[10] = Brassica napus, oilseed rape, canola (Brassica napus), read-out: Visual Growth Reduction (%) 14 Days After Application, BRSNN
[11] = Chenopodium album, lambsquarters (Chenopodium album), read-out: Visual Growth Reduction (%) 14 Days After Application, CHEAL
[12] = Euphorbia heterophylla, wild poinsettia (Euphorbia heterophylla), read-out: Visual Growth Reduction (%) 14 Days After Application, EPHHL
[13] = Helianthus annuus, sunflower (Helianthus annuus), read-out: Visual Growth Reduction (%) 14 Days After Application, HELAN
[14] = Zea mays, maize, corn (Zea mays), read-out: Visual Growth Reduction (%) 14 Days After Application, ZEAMX

| Compound | pest or weed control at 35 g/ha [1, 3] [%] | pest or weed control at 70 g/ha [1, 3] [%] | pest or weed control at 140 g/ha [1, 3] [%] | pest or weed control at 35 g/ha [1, 4] [%] | pest or weed control at 70 g/ha [1, 4] [%] | pest or weed control at 140 g/ha [1, 4] [%] | pest or weed control at 35 g/ha [1, 5] [%] | pest or weed control at 70 g/ha [1, 5] [%] | pest or weed control at 140 g/ha [1, 5] [%] | pest or weed control at 35 g/ha [1, 6] [%] | pest or weed control at 70 g/ha [1, 6] [%] | pest or weed control at 140 g/ha [1, 6] [%] | pest or weed control at 35 g/ha [1, 7] [%] | pest or weed control at 70 g/ha [1, 7] [%] | pest or weed control at 140 g/ha [1, 7] [%] | pest or weed control at 35 g/ha [2, 8] [%] | pest or weed control at 70 g/ha [2, 8] [%] | pest or weed control at 140 g/ha [2, 8] [%] | pest or weed control at 35 g/ha [2, 9] [%] | pest or weed control at 70 g/ha [2, 9] [%] | other results |
| --- | --- | --- | --- | --- | --- | --- | --- | --- | --- | --- | --- | --- | --- | --- | --- | --- | --- | --- | --- | --- | --- |
| COc1c(N)nc(-c2ccc3cc[nH]c3c2)nc1C(=O)O [Compound 1.33] | 0 to 29 | 0 to 29 | 0 to 29 | 0 to 29 | 0 to 29 | 0 to 29 | 0 to 29 | 0 to 29 | 0 to 29 | 0 to 29 | 0 to 29 | 0 to 29 | 0 to 29 | 0 to 29 | 30 to 44 | 0 to 29 | 0 to 29 | 0 to 29 | 60 to 74 | 60 to 74 | pest or weed control at 140 g/ha [2, 9]: 75 to 84%; pest or weed control at 35 g/ha [2, 10]: 95 to 100%; pest or weed control at 70 g/ha [2, 10]: 95 to 100%; pest or weed control at 140 g/ha [2, 10]: 95 to 100%; pest or weed control at 35 g/ha [2, 11]: 0 to 29%; pest or weed control at 70 g/ha [2, 11]: 45 to 59%; pest or weed control at 140 g/ha [2, 11]: 60 to 74%; pest or weed control at 35 g/ha [2, 12]: 45 to 59%; pest or weed control at 70 g/ha [2, 12]: 60 to 74%; pest or weed control at 140 g/ha [2, 12]: 75 to 84%; pest or weed control at 35 g/ha [2, 13]: 60 to 74%; pest or weed control at 70 g/ha [2, 13]: 60 to 74%; pest or weed control at 140 g/ha [2, 13]: 75 to 84%; melting point: 154 to 157 °C |
| COC(=O)c1nc(-c2ccc3cc[nH]c3c2)nc(N)c1Cl [Compound 1.30] | 0 to 29 | 0 to 29 | 0 to 29 | 0 to 29 | 0 to 29 | 0 to 29 | 0 to 29 | 0 to 29 | 0 to 29 | 0 to 29 | 0 to 29 | 0 to 29 | 0 to 29 | 0 to 29 | 0 to 29 | 0 to 29 | 0 to 29 | 75 to 84 | 0 to 29 | 75 to 84 | pest or weed control at 35 g/ha [1, 14]: 0 to 29%; pest or weed control at 70 g/ha [1, 14]: 0 to 29%; pest or weed control at 140 g/ha [1, 14]: 0 to 29%; pest or weed control at 140 g/ha [2, 9]: 60 to 74%; pest or weed control at 35 g/ha [2, 10]: 45 to 59%; pest or weed control at 70 g/ha [2, 10]: 45 to 59%; pest or weed control at 140 g/ha [2, 10]: 60 to 74%; pest or weed control at 35 g/ha [2, 11]: 30 to 44%; pest or weed control at 70 g/ha [2, 11]: 30 to 44%; pest or weed control at 140 g/ha [2, 11]: 45 to 59%; pest or weed control at 35 g/ha [2, 12]: 0 to 29%; pest or weed control at 70 g/ha [2, 12]: 45 to 59%; pest or weed control at 140 g/ha [2, 12]: 60 to 74%; pest or weed control at 35 g/ha [2, 13]: 0 to 29%; pest or weed control at 70 g/ha [2, 13]: 0 to 29%; pest or weed control at 140 g/ha [2, 13]: 0 to 29%; melting point: 240 to 242 °C |
